In the NIST ThermoML archive (doi:10.1016/j.fluid.2013.09.051):

Test: xn = mol fraction of the nth substance listed
Settings: Liquid, Time-dependent Raman spectra, x1 = 0

C [methane] + O
binary diffusion coefficient [m2/s]
Settings	273 K	298 K	313 K	353 K	393 K	433 K	473 K
5000 kPa	–	1.61e-09	–	4.85e-09	8.59e-09	–	–
10000 kPa	–	1.63e-09	–	5e-09	8.7e-09	–	–
20000 kPa	7.02e-10	1.64e-09	2.39e-09	4.98e-09	8.68e-09	1.25e-08	1.71e-08
30000 kPa	–	1.6e-09	–	4.79e-09	8.45e-09	–	–
40000 kPa	–	1.62e-09	–	4.8e-09	8.08e-09	–	–
